According to publication PMC5784979, “Direct comparison of the four aldehyde oxidase enzymes present in mouse gives insight into their substrate specificities” (PLoS ONE, 2018):

Tests used:
mAOX2 = target: T1, mAOX2 (Mus musculus, UniProt Q5SGK3); assay: DCPIP reduction at […] nm, steady-state kinetics; assay type: biochemical; conditions: 100 μM DCPIP as electron acceptor, 50 mM Tris-HCl, 1 mM EDTA, pH 8.0, 37°C, corrected to 100% Mo saturation
T1 construct: gene Aox2; recombinant from E. coli TP1000 (codon-optimized plasmid pMAOX2co), Ni-NTA and Superdex 200 purified, chemically sulfurated, dimer (300 kDa)
T1 sequence (Q5SGK3 1-1345): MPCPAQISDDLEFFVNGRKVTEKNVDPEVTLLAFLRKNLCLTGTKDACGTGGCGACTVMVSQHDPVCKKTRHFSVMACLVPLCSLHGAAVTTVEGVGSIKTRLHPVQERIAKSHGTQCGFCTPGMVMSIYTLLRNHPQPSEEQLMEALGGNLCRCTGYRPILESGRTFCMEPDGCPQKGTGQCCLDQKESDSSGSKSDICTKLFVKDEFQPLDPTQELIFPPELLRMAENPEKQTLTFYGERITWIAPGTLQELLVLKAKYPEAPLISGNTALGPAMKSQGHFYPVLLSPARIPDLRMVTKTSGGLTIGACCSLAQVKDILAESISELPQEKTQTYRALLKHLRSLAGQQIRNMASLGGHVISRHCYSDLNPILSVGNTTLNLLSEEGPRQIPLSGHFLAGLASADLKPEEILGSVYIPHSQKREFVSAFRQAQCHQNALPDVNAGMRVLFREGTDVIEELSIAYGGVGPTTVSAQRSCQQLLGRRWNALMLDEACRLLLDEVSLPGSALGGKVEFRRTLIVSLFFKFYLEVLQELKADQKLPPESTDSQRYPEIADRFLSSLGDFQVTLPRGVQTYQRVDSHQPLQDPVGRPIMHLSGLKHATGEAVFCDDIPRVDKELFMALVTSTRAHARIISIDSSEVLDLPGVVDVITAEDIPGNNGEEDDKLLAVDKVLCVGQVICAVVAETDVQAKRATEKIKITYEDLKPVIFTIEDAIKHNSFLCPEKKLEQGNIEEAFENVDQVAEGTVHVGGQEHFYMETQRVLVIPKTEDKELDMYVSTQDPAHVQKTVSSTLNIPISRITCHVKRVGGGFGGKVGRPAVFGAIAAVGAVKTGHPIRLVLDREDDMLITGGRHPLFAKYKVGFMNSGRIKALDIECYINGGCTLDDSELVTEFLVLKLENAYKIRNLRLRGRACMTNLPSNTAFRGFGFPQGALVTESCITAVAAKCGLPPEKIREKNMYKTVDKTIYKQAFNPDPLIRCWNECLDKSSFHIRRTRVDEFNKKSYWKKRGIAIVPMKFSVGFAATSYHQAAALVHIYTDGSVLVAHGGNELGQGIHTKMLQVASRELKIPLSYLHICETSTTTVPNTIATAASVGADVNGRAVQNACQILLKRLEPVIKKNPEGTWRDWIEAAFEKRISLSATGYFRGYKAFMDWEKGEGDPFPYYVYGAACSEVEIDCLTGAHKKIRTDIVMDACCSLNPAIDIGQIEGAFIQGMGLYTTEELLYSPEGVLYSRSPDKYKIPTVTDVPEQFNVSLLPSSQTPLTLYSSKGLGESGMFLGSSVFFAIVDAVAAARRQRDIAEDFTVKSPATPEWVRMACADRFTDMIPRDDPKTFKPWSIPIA

mAOX4 = target: T2, mAOX4 (Mus musculus, UniProt Q3TYQ9); assay: DCPIP reduction at […] nm, steady-state kinetics; assay type: biochemical; conditions: 100 μM DCPIP as electron acceptor, 50 mM Tris-HCl, 1 mM EDTA, pH 8.0, 37°C, corrected to 100% Mo saturation
T2 construct: gene Aox4; recombinant from E. coli TP1000 (plasmid pMAOX4), Ni-NTA and Superdex 200 purified, chemically sulfurated, dimer (300 kDa)
T2 sequence (Q3TYQ9 1-1336): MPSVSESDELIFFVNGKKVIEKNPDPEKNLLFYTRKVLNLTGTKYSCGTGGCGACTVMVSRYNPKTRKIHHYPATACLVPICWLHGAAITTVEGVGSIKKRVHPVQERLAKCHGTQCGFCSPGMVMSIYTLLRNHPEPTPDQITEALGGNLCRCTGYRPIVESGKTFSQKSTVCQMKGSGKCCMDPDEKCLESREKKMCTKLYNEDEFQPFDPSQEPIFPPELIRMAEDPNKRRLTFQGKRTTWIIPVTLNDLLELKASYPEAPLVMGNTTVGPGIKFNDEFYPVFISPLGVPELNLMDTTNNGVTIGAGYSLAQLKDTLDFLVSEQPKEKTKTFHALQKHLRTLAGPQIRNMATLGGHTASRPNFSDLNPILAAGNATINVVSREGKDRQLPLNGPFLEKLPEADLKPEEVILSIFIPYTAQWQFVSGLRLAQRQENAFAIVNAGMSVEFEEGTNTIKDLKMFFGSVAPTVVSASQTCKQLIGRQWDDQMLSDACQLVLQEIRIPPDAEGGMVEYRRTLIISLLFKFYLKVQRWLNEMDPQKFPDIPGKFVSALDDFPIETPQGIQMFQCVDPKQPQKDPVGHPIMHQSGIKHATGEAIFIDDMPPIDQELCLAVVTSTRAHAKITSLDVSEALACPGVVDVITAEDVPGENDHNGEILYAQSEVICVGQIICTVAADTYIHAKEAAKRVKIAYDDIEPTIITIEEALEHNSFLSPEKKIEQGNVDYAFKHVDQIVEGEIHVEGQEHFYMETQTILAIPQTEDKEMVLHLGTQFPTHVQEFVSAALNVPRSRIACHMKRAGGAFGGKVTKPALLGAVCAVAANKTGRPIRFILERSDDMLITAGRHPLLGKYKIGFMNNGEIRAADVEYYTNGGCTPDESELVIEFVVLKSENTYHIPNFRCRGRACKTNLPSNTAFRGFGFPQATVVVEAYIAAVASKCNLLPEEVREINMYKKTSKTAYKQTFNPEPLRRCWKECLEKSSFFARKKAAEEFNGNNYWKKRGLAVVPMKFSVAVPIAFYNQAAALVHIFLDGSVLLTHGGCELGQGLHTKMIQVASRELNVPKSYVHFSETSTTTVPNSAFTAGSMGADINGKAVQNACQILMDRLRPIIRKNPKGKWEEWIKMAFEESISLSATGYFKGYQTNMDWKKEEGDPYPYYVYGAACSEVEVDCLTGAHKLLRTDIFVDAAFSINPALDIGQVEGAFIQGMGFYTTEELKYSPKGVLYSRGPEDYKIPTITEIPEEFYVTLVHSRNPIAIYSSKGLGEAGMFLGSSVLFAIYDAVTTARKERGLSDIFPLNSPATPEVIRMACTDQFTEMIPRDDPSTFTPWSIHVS

[1] = limit given jointly for mAOX3, mAOX4 and mAOX2

A Km (mAOX2; [1]) of under 0.002 mM and a Km (mAOX4; [1]) of under 0.002 mM were found for O=Cc1ccc(O)cc1 [4-hydroxybenzaldehyde] in this work.

A Km (mAOX2) of 4.4 to 4.6 mM and a Km (mAOX4) of 4.4 to 4.6 mM were found for CC=O [acetaldehyde] in this work.
